Where two headings read alike, the source gives them in different places. Non-standard residues stand in square brackets, D forms with d. Residues, ends and D or L forms follow the SMILES beside them. *: point of attachment. Lauroyl = CCCCCCCCCCCC(=O)*; 12Ado = NCCCCCCCCCCCC(=O)O; Octanoyl = CCCCCCCC(=O)*
Assays:
TRAMP-C2 cell line = format: cell-based
Source text: Transgenic adenocarcinoma mouse prostate cells (TRAMP-C2);
(§1) As a routine cancer cell killing assay for assessment of antitumor activity, 2,3-bis(2-methoxy-4-nitro-5-sulfophenyl)-2H-tetrazolium-5-carboxanilide inner salt (XTT) reduction assay was used, utilizing a commercial kit such as, for example, Cell Proliferation XTT Kit, Cat. No. 20-300-1000, Biological Industries Ltd., Kibbutz Beit Haemek, Israel. XTT is a tetrazolium salt which is cleaved to formazan colored compounds by the mitochondrial dehydrogenase enzymes indicating proper mitochondrial activity in intact cells.
(§2) Thereafter, a series of increasing concentrations of the polymers were added. After another 24 hours of incubation, XTT reaction solution was added (50 μl of XTT per 100 μl of cell culture medium). The optical density of the cells was measured at 450 nm by ELISA plate reader after 2-4 hours XTT incubation. Cell viability was determined relative to a control having no polymer added thereto.
“Mouse prostate cancer TRAMP-C2” represents the lethal concentration in μM as measured against TRAMP-C2 cell line, measured as described hereinabove in the cell proliferation XTT assay (column 5 in Table 3);

MCF-7 cell line = format: cell-based
Protocol: Human breast adenocarcinoma cells (MCF-7);
Thereafter, a series of increasing concentrations of the polymers were added. […] The optical density of the cells was measured at 450 nm by ELISA plate reader after 2-4 hours XTT incubation. Cell viability was determined relative to a control having no polymer added thereto.

N-417 cell line = experiment: XTT cell viability assay, N-417 cells; format: cell-based
Source text: Variant small cell lung cancer cells (N-417, SCLC);
as §1, §2
“Human breast cancer MCF-7” represents the lethal concentration in μM as measured against MCF-7 cell line, measured as described hereinabove in the cell proliferation XTT assay (column 6 in Table 3); “Human small-cell lung carcinoma N-417” represents the lethal concentration in μM as measured against N-417 cell line, measured as described hereinabove in the cell proliferation XTT assay (column 7 in Table 3);

[1] = XTT cell viability assay, non-cancerous cardiac fibroblasts (CF); format: cell-based, rat; details: rat
Source text: Primary non-cancerous rat cardiac fibroblasts (CF);
as §1, §2
“Rat primary cardiac fibroblast CF” represents the lethal concentration in μM as measured against CF cell line, measured as described hereinabove in the cell proliferation XTT assay (column 8 in Table 3);

in vitro = details: human
Protocol: The polymer's toxic potential was determined against human red blood cells (RBC) by measuring leakage of hemoglobin therefrom in phosphate buffer solution (PBS). Human blood samples were rinsed three times in PBS by centrifugation for 2 minutes at 200×g, and re-suspended in PBS at 5% hematocrit. A 50 μl-fractions of a suspension containing […] RBC were added to test tubes containing 200 μl of polymer solutions (2-fold serial dilutions in PBS), PBS alone (for base-line values), or distilled water (for 100% hemolysis). […] Controls for base-line hemolysis (blank) and 100% hemolysis consisted of RBC suspended in PBS and TritonX100 (0.2%), respectively.

[2] = 24 hours incubation, XTT, read-out: Cancer LC50 Mouse prostate cancer TRAMP-C2
[3] = 24 hours incubation, XTT, read-out: Cancer LC50 Human breast cancer MCF-7
[4] = 24 hours incubation, XTT, read-out: Cancer LC50 Human small-cell lung carcinoma N-417
[5] = primary non-cancerous cardiac fibroblasts (CF), 24 hours incubation, XTT, non-cancerous cells, read-out: Cancer LC50 Rat primary cardiac fibroblast CF
[6] = Cancer LC50 Rat primary cardiac fibroblast CF

| SMILES | CC50 (TRAMP-C2 cell line; [2]) | CC50 (MCF-7 cell line; [3]) | CC50 (N-417 cell line; [4]) | CC50 at 24 h [1, 5] | also measured |
| --- | --- | --- | --- | --- | --- |
| CCCCCCCCCCCC(=O)N[C@@H](CCCCN)C(=O)NCCCCCCCCCCCC(=O)N[C@@H](CCCCN)C(=O)N[C@@H](CCCCN)C(=O)NCCCCCCCCCCCC(=O)N[C@@H](CCCCN)C(=O)N[C@@H](CCCCN)C(=O)NCCCCCCCCCCCC(=O)N[C@@H](CCCCN)C(N)=O (Lauroyl-K[12Ado]KK[12Ado]KK[12Ado]K-NH2) | 10 µM | 6 ± 1 µM | < 16 µM | > 16 µM | CC50 (TRAMP-C2 cell line; dose-dependent plot, FIG. 6a, read-out: LC50 towards TRAMP-C2 cells): 11 µM; CC50 at 24 h ([1]; primary non-cancerous cardiac fibroblasts (CF), dose-dependent plots, FIGS. 4a-b, 6a, read-out: LC50 against non-cancerous CF cells): 38 µM; HC50 at 3 h (in vitro; red blood cells): 10 ± 0.1 µM |
| NCCCC[C@@H]1NC(=O)CCCCCCCCCCCNC(=O)[C@H](CCCCN)NC(=O)[C@H](CCCCN)NC(=O)CCCCCCCCCCCNC(=O)[C@H](CCCCN)NC(=O)[C@H](CCCCN)NC(=O)CCCCCCCCCCCNC(=O)[C@H](CCCCN)NC1=O [Cyclic-(KNC12K)3] (cyclo(K[12Ado]KK[12Ado]KK[12Ado]K)) |  |  |  |  | HC50 at 3 h (in vitro): > 100 µM |
| NCCCC[C@H](NC(=O)CCCCCCCCCCCNC(=O)[C@H](CCCCN)NC(=O)[C@H](CCCCN)NC(=O)CCCCCCCCCCCNC(=O)[C@@H](N)CCCCN)C(N)=O [(KNC12K)2NH2] (HELM PEPTIDE1{K.[O=C(CCCCCCCCCCCN[*:1])[*:2]].K.K.[O=C(CCCCCCCCCCCN[*:1])[*:2]].K.[am]}$$$$V2.0) | > 16 µM | > 16 µM | > 16 µM | > 16 µM | HC50 at 3 h (in vitro; red blood cells): > 100 µM |
| NCCCC[C@@H]1NC(=O)CCCCCCCCCCCNC(=O)[C@H](CCCCN)NC(=O)[C@H](CCCCN)NC(=O)CCCCCCCCCCCNC(=O)[C@H](CCCCN)NC(=O)[C@H](CCCCN)NC(=O)CCCCCCCCCCCNC1=O [Cyclic-NC12K(KNC12K)2] (cyclo([12Ado]KK[12Ado]KK[12Ado]K)) |  |  |  |  | HC50 at 3 h (in vitro): > 100 µM |
| NCCCCCCCCCCCC(=O)N[C@@H](CCCCN)C(=O)NCCCCCCCCCCCC(=O)N[C@@H](CCCCN)C(=O)N[C@@H](CCCCN)C(=O)NCCCCCCCCCCCC(=O)N[C@@H](CCCCN)C(N)=O [NC12(KNC12K)2NH2] (H-[12Ado]K[12Ado]KK[12Ado]K-NH2) |  |  |  |  | CC50 (TRAMP-C2 cell line; mouse, 24 h): > 16 µM; CC50 (MCF-7 cell line; human, 24 h): > 16 µM; CC50 (N-417 cell line; human, 24 h): > 16 µM; CC50 at 24 h [1, 6]: > 16 µM |
| NCCCC[C@@H]1NC(=O)CCCCCCCCCCCNC(=O)[C@H](CCCCN)NC(=O)CCCCCCCCCCCNC(=O)[C@H](CCCCN)NC(=O)CCCCCCCCCCCNC(=O)[C@H](CCCCN)NC(=O)[C@H](CCCCN)NC(=O)CCCCCCCCCCCNC(=O)[C@H](CCCCN)NC(=O)CCCCCCCCCCCNC1=O [Cyclic-K(NC12K)5] (cyclo(K[12Ado]K[12Ado]K[12Ado]K[12Ado]K[12Ado]K)) |  |  |  |  | HC50 at 3 h (in vitro): 3.4 ± 0.3 µM |
| NCCCC[C@H](NC(=O)CCCCCCCCCCCNC(=O)[C@H](CCCCN)NC(=O)[C@@H](N)CCCCN)C(N)=O [KKNC12KNH2] (HELM PEPTIDE1{K.K.[O=C(CCCCCCCCCCCN[*:1])[*:2]].K.[am]}$$$$V2.0) |  |  |  |  | CC50 (TRAMP-C2 cell line; mouse, 24 h): > 16 µM; CC50 (MCF-7 cell line; human, 24 h): > 16 µM; CC50 (N-417 cell line; human, 24 h): > 16 µM; CC50 at 24 h [1, 6]: > 16 µM |
| NCCCC[C@H](NC(=O)CCCCCCCCCCCNC(=O)[C@H](CCCCN)NC(=O)[C@H](CCCCN)NC(=O)CCCCCCCCCCCNC(=O)[C@H](CCCCN)NC(=O)[C@@H](N)CCCCN)C(N)=O [K(KNC12K)2NH2] (HELM PEPTIDE1{K.K.[O=C(CCCCCCCCCCCN[*:1])[*:2]].K.K.[O=C(CCCCCCCCCCCN[*:1])[*:2]].K.[am]}$$$$V2.0) | > 16 µM | > 16 µM | > 16 µM | > 16 µM |  |
| CCCCCCCC(=O)N[C@@H](CCCCN)C(=O)N[C@@H](CCCCN)C(=O)NCCCCCCCCCCCC(=O)N[C@@H](CCCCN)C(N)=O [C8KKNC12KNH2] (HELM PEPTIDE1{[CCCCCCCC(=O)[*:2]].K.K.[O=C(CCCCCCCCCCCN[*:1])[*:2]].K.[am]}$$$$V2.0) |  |  |  |  | CC50 (TRAMP-C2 cell line; mouse, 24 h): > 16 µM; CC50 (MCF-7 cell line; human, 24 h): > 16 µM; CC50 (N-417 cell line; human, 24 h): > 16 µM; CC50 at 24 h [1, 6]: > 16 µM |
| CCCCCCCCCCCC(=O)N[C@@H](CCCCN)C(=O)N[C@@H](CCCCN)C(=O)NCCCCCCCCCCCC(=O)N[C@@H](CCCCN)C(N)=O [C12KKNC12KNH2] (HELM PEPTIDE1{[CCCCCCCCCCCC(=O)[*:2]].K.K.[O=C(CCCCCCCCCCCN[*:1])[*:2]].K.[am]}$$$$V2.0) |  |  |  |  | CC50 (TRAMP-C2 cell line; mouse, 24 h): > 16 µM; CC50 (MCF-7 cell line; human, 24 h): > 16 µM; CC50 (N-417 cell line; human, 24 h): > 50 µM; CC50 at 24 h [1, 6]: > 16 µM |
| NCCCC[C@@H]1NC(=O)CCCCCCCCCCCNC(=O)[C@H](CCCCN)NC(=O)[C@H](CCCCN)NC(=O)CCCCCCCCCCCNC(=O)[C@H](CCCCN)NC1=O [Cyclic-(KNC12K)2] (HELM PEPTIDE1{[O=C(CCCCCCCCCCCN[*:1])[*:2]].K.K.[O=C(CCCCCCCCCCCN[*:1])[*:2]].K.K}$PEPTIDE1,PEPTIDE1,1:R1-6:R2$$$V2.0) |  |  |  |  | HC50 at 3 h (in vitro; red blood cells): > 100 µM |
| NCCCCCCCCCCCC(=O)N[C@@H](CCCCN)C(=O)N[C@@H](CCCCN)C(=O)NCCCCCCCCCCCC(=O)N[C@@H](CCCCN)C(=O)N[C@@H](CCCCN)C(=O)NCCCCCCCCCCCC(=O)N[C@@H](CCCCN)C(N)=O [NC12K(KNC12K)2NH2] (H-[12Ado]KK[12Ado]KK[12Ado]K-NH2) | > 16 µM | > 16 µM | > 16 µM | > 16 µM |  |
| CCCCCCCCCCCC(=O)N[C@@H](CCCCN)C(=O)N[C@@H](CCCCN)C(=O)NCCCCCCCCCCCC(=O)N[C@@H](CCCCN)C(=O)N[C@@H](CCCCN)C(=O)NCCCCCCCCCCCC(=O)N[C@@H](CCCCN)C(N)=O [C12K(KNC12K)2NH2] (Lauroyl-KK[12Ado]KK[12Ado]K-NH2) | > 16 µM | 12 ± 4 µM | 11 ± 1 µM | 38 ± 1 µM |  |
| CCCCCCCC(=O)N[C@@H](CCCCN)C(=O)NCCCCCCCCCCCC(=O)N[C@@H](CCCCN)C(=O)N[C@@H](CCCCN)C(=O)NCCCCCCCCCCCC(=O)N[C@@H](CCCCN)C(N)=O [C8(KNC12K)2NH2] (Octanoyl-K[12Ado]KK[12Ado]K-NH2) | > 8 µM | > 16 µM | > 16 µM | > 16 µM |  |
| NCCCCCCCCCCCC(=O)N[C@@H](CCCCN)C(=O)N[C@@H](CCCCN)C(=O)NCCCCCCCCCCCC(=O)N[C@@H](CCCCN)C(N)=O [NC12KKNC12KNH2] (HELM PEPTIDE1{[NCCCCCCCCCCCC(=O)[*:2]].K.K.[O=C(CCCCCCCCCCCN[*:1])[*:2]].K.[am]}$$$$V2.0) | > 16 µM | > 16 µM | > 16 µM | > 16 µM |  |
| NCCCC[C@@H]1NC(=O)CCCCCCCCCCCNC(=O)[C@H](CCCCN)NC(=O)[C@H](CCCCN)NC(=O)CCCCCCCCCCCNC1=O [Cyclic-NC12KKNC12K] (HELM PEPTIDE1{[O=C(CCCCCCCCCCCN[*:1])[*:2]].K.[O=C(CCCCCCCCCCCN[*:1])[*:2]].K.K}$PEPTIDE1,PEPTIDE1,1:R1-5:R2$$$V2.0) |  |  |  |  | HC50 at 3 h (in vitro; red blood cells): > 100 µM |
| CCCCCCCC(=O)N[C@@H](CCCCN)C(=O)N[C@@H](CCCCN)C(=O)NCCCCCCCCCCCC(=O)N[C@@H](CCCCN)C(=O)N[C@@H](CCCCN)C(=O)NCCCCCCCCCCCC(=O)N[C@@H](CCCCN)C(N)=O [C8K(KNC12K)2NH2] (Octanoyl-KK[12Ado]KK[12Ado]K-NH2) | > 16 µM | 20 ± 1 µM | > 16 µM | > 50 µM |  |

Reference: patent publication US20100173832A1, “ANTICANCEROUS POLYMERIC AGENTS” (TECHNION RESEARCH & DEVELOPMENT FOUNDATION LTD., priority 2007, published 2010)
